Laboratory results as given in patent publication US12071424B2, “IRE1 small molecule inhibitors” (Cornell University, priority 2017, dated 2024).

Columns and labels:
[1] = Bioavailability assay (pharmacokinetic study); settings: mouse; IV 1 mg/kg, PO 30 mg/kg (Compound A PO 10 mg/kg)
[2] = test system: IRE1a-mediated XBP1 splicing; assay: Target engagement in pancreas and salivary gland (RT-qPCR XBP1 splicing); type: in vivo; settings: mouse, 30 mg/kg oral gavage, 6 hours; compared to control and Compound B
Protocol: Mice (n=3 per group) were orally gavaged with 30 mg/kg vehicle control or IRE1 inhibitors dissolved in H2O. After 6 hours, mice were euthanized and pancreas and salivary gland tissues were isolated, snap frozen on dry ice, and used for subsequent RT-qPCR analysis of beta-actin, XBP1s and total XBP1. Gene expression was evaluated by quantitative PCR for XBP1s and total XBP1 transcripts using the 2^(−ΔCT) method for calculating normalized gene expression. Gene expression levels were normalized to Actb transcripts. XBP1 splicing is calculated as XBP1s expression divided by total XBP1 expression.

[3] = test system: IRE1a-dependent XBP1 splicing; assay: Inhibition of IRE1a-dependent XBP1 splicing in mice with metastatic ovarian cancer; type: in vivo, mouse; settings: single oral dose 45 mg/kg, 24 hours, FACS-isolated ascites cells
Protocol: Mice (n=3) with established metastatic ovarian cancer were orally gavaged with 45 mg/kg vehicle control or inhibitor dissolved in H2O. The Inhibitor was Compound C. Compound C is 2-chloro-N-(5-(2-(((1r,4r)-4-dimethylamino)cyclohexyl)amino)-8-ethylquinazolin-6-yl)-6-methylpyridin-2-yl)benzenesulfonamide, Compound 91, described herein. After 24 hours, mice were euthanized, ascites-resident cells were extracted and tumor cells, dendritic cells (DCs), and CD4+ T cells were isolated by FACS. The samples were used for subsequent if RT-qPCR analysis of beta-actin, XBP1s and total XBP1. Gene expression was evaluated by quantitative PCR for XBP1s and total XBP1 transcripts using the 2^(−ΔCT) method for calculating normalized gene expression. Gene expression levels were normalized to Actb transcripts. XBP1 splicing is calculated as XBP1s expression divided by total XBP1 expression. A single oral dose of Compound C suppressed IRE1a-dependent XBP1 splicing in tumor cells and relevant immune cells in vivo over 24 hours, FIG. 7.
Mice (n=3) with established metastatic ovarian cancer were orally gavaged with 45 mg/kg vehicle control or inhibitor dissolved in H2O. […] Gene expression was evaluated by quantitative PCR for XBP1s and total XBP1 transcripts using the 2^(−ΔCT) method for calculating normalized gene expression. […] XBP1 splicing is calculated as XBP1s expression divided by total XBP1 expression. […]

[4] = Metabolic assays of N,N-dimethyl compounds; type: in vitro ADME; settings: data not shown
[5] = test system: IRE1a/XBP1 pathway; assay: Inhibition of endogenous XBP1 splicing in 293T cells with tunicamycin; type: cell-based, human
Protocol: Gene expression was evaluated by quantitative PCR for XBP1s and total XBP1 transcripts using the 2^(−ΔCT) method for calculating normalized gene expression. Gene expression levels were normalized to ACTB transcripts. XBP1 splicing was calculated as actin-normalized XBP1s expression divided by actin-normalized total XBP1 expression.

[6] = test system: IRE1a; assay: IRE1a phosphorylation inhibition assay (immunoblot, 293T cells, tunicamycin); type: cell-based, human
Protocol: Inhibition of ER stress-induced IRE1a phosphorylation and XBP1s protein accumulation in human 293T cells assessed. Immunoblot analysis was performed in human 293T cells lysates obtained from cells after exposure to the chemical ER stress-inducing agent tunicamycin, and optional treatment with Compound C. Lysates were probed with antibodies recognizing IRE1a, phosphorylated IRE1a, XBP1, or TATA-binding protein (TBP). (TBP) was blotted as a protein loading control. […] See FIG. 8, 20 nM was sufficient to reduce XBP1s protein levels below the limit of detection in this assay.

oral bioavailability [1]	SMILES	IRE1a-mediated XBP1 splicing in pancreas and salivary gland [2]	IRE1a-dependent XBP1 splicing in tumor cells and immune cells in vivo [3]	metabolism [4]	shift in potency between Compound A and Compound C [5]	concentration sufficient to reduce XBP1s protein levels below the limit of detection [6]	IRE1a phosphorylation ([6]; pre-incubation with compound)	accumulation of XBP1s protein ([6]; pre-incubation with compound)
4%	CCc1cc(-c2ccc(NS(=O)(=O)c3ccccc3Cl)nc2C)cc2cnc(N[C@H]3CC[C@H](N)CC3)nc12 [Compound A, N-(5-(2-(((1r,4r)-4-aminocyclohexyl)amino)-8-ethylquinazolin-6-yl)-6-methylpyridin-2-yl)-2-chlorobenzenesulfonamide]							
	CCc1cc(-c2ccc(NS(=O)(=O)c3ccccc3Cl)nc2C)cc2cnc(N[C@H]3CC[C@H](N(C)C)CC3)nc12 [Compound C]	potently suppressed	suppressed	removal of the methyl groups	approximately 3.6 ×	20 nM	strongly repressed	completely abrogated
	CCc1cc(-c2ccc(NS(=O)(=O)c3ccccc3Cl)nc2OC)cc2cnc(N[C@H]3CC[C@H](N(C)C)CC3)nc12 [Compound D]	potently suppressed	suppressed	removal of the methyl groups				
